This is an account of results in ChEMBL document CHEMBL1201862, “PubChem BioAssay data set” (2004).

Among the test systems are T47D; HCT-116; NCI-H226; SNB-75; MDA-MB-231; SK-MEL-2; COLO 205; A498; NCI-H460; SF-295; LOX IMVI; TK-10; SF-539; DU-145; CAKI-1; PC-3; EKVX; MOLT-4.
What all share (assay): NCI-60 cell line screen, 48 h

SMILES strings stand for the structures.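 Results reflect a 48-hour exposure of cells in 96-well plates to compound at five concentrations. The concentration for 50% growth inhibition is given as GI50.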 Calls of active or inactive are those of the source. Cut-off read from the data, not from the text of the source: active = GI50 up to about 1.1 µM and inactive = higher.

`NNC(=O)CS(=O)(=O)Nc1ncccn1`: the GI50 in the assay on T47D, in the assay on HCT-116, in the assay with NCI-H226, with SNB-75, with MDA-MB-231 and in the assay on SK-MEL-2 was > 100 µM (inactive) throughout. Further, the GI50 with COLO 205 is > 100 µM (inactive); in the assay with A498, > 100 µM (inactive); in the assay on NCI-H460, > 100 µM (inactive); in the assay on SF-295, > 100 µM (inactive); with LOX IMVI it was > 100 µM (inactive); in the assay with TK-10, 13.2 µM (inactive). Also, the GI50 in the assay on SF-539, in the assay on DU-145, in the assay with CAKI-1, in the assay with PC-3 and in the assay with EKVX was > 100 µM (inactive) in each case.
For `Cc1ccc2c(c1C)C(=O)/C(=C/c1cccc(C)c1C(=O)O)C2`, the GI50 in the assay with T47D was > 100 µM (inactive); in the assay with HCT-116, 48.4 µM (inactive); with NCI-H226 it was 43.1 µM (inactive); in the assay with SNB-75, 69.3 µM (inactive); with MDA-MB-231, > 62.7 µM (inactive); with SK-MEL-2 it was > 83.6 µM (inactive). Moreover, the GI50 was 53.2 µM (inactive) in the assay with MOLT-4; > 100 µM (inactive) in the assay on COLO 205; > 45.1 µM (inactive) with A498; 65 µM (inactive) with NCI-H460; > 100 µM (inactive) with SF-295; 44.1 µM (inactive) in the assay on LOX IMVI. In addition, the GI50 with TK-10 was > 100 µM (inactive); in the assay with SF-539, 69.2 µM (inactive); in the assay on DU-145, > 100 µM (inactive); in the assay with PC-3 it was 57.5 µM (inactive); in the assay with EKVX, > 100 µM (inactive).
In the case of `CN(C)c1ccc(/C=N/NC2=N/C(=C\c3ccco3)C(=O)N2)cc1`, the GI50 in the assay with T47D, in the assay on HCT-116, in the assay on NCI-H226, in the assay on SNB-75, in the assay on MDA-MB-231 and in the assay with SK-MEL-2 was > 100 µM (inactive) in each case. Moreover, the GI50 in the assay on MOLT-4, in the assay with COLO 205, in the assay on A498, with NCI-H460, in the assay with SF-295 and in the assay with LOX IMVI was > 100 µM (inactive) throughout. In addition, the GI50 with TK-10, in the assay with SF-539, in the assay on DU-145, in the assay with CAKI-1, in the assay with PC-3 and in the assay with EKVX was > 100 µM (inactive) each time.
`COC12CCCN1c1ccn(Cc3ccccc3)c(=O)c1C2=O` (stereo not drawn): the GI50 in the assay with T47D, in the assay on HCT-116, in the assay with NCI-H226, in the assay on SNB-75, in the assay on MDA-MB-231 and in the assay on SK-MEL-2 was > 100 µM (inactive) throughout. In addition, the GI50 is 28.7 µM (inactive) with MOLT-4; > 100 µM (inactive) in the assay with COLO 205; > 100 µM (inactive) with A498; > 100 µM (inactive) with NCI-H460; > 100 µM (inactive) in the assay on SF-295; > 100 µM (inactive) with LOX IMVI. Besides, the GI50 in the assay with TK-10, with SF-539, in the assay on DU-145, in the assay with CAKI-1, with PC-3 and with EKVX was > 100 µM (inactive) each time.
For the compound `O=C(Cc1cc(=O)oc2cc(O)ccc12)N/N=C/c1ccc(N(CCCl)CCCl)cc1`, the GI50 is > 10 µM (inactive) in the assay on T47D; 16.6 µM (inactive) in the assay with HCT-116; 17.7 µM (inactive) with NCI-H226; 21.7 µM (inactive) in the assay with SNB-75; 18.5 µM (inactive) with MDA-MB-231; > 100 µM (inactive) with SK-MEL-2. The GI50 in the assay on MOLT-4 was 15.3 µM (inactive); in the assay on COLO 205, 29.2 µM (inactive); in the assay on A498 it was 22.3 µM (inactive); in the assay with NCI-H460 it was 13.8 µM (inactive); in the assay on SF-295 it was 18.1 µM (inactive); in the assay on LOX IMVI it was 16.6 µM (inactive). Moreover, the GI50 in the assay on SF-539 is 18 µM (inactive); with DU-145 it was 19.6 µM (inactive); with CAKI-1, 12.7 µM (inactive); with PC-3, 17.9 µM (inactive); with EKVX it was 17.5 µM (inactive).
For `COc1cc(Nc2ccc3c(c2)CCC3)nc(OC)n1`, the GI50 in the assay with T47D was 26.4 µM (inactive); in the assay on HCT-116, 38.2 µM (inactive); with NCI-H226 it was 32.5 µM (inactive); in the assay on SNB-75, 18.9 µM (inactive); in the assay with MDA-MB-231, 38.5 µM (inactive); with SK-MEL-2, 33 µM (inactive). In addition, the GI50 with MOLT-4 is 0.0144 µM (active); in the assay with COLO 205 it was 37.3 µM (inactive); in the assay with A498, 24.3 µM (inactive); in the assay with NCI-H460 it was 30.8 µM (inactive); in the assay with SF-295, 29.6 µM (inactive); in the assay on LOX IMVI it was 45.7 µM (inactive). The GI50 was 28.2 µM (inactive) in the assay on TK-10; 38.9 µM (inactive) in the assay on SF-539; 53 µM (inactive) in the assay on DU-145; 37.9 µM (inactive) with CAKI-1; 27.1 µM (inactive) with PC-3; 17.1 µM (inactive) in the assay on EKVX.
As to `Cc1ccc2[nH]c(=O)c(-c3cnc(O)nn3)c(O)c2c1`, the GI50 is 53.2 µM (inactive) with T47D; 32.7 µM (inactive) with HCT-116; > 100 µM (inactive) in the assay with NCI-H226; > 100 µM (inactive) in the assay on SNB-75; > 100 µM (inactive) in the assay on MDA-MB-231; 45 µM (inactive) in the assay with SK-MEL-2. Besides, the GI50 in the assay with MOLT-4 is 5.06 µM (inactive); with COLO 205, > 100 µM (inactive); with A498, > 100 µM (inactive); with NCI-H460, > 100 µM (inactive); with SF-295 it was 60.7 µM (inactive); in the assay with LOX IMVI it was > 100 µM (inactive). The GI50 with TK-10 was > 100 µM (inactive); with SF-539 it was > 100 µM (inactive); in the assay with DU-145, > 100 µM (inactive); with CAKI-1, 55.3 µM (inactive); in the assay with PC-3 it was 15.6 µM (inactive); with EKVX it was 3.4 µM (inactive).
As for `C=CCC(CNC(=O)OCc1ccccc1)OC(=O)OCc1ccccc1` (stereo not drawn), the GI50 in the assay on T47D was 47.8 µM (inactive); in the assay with HCT-116, 51.9 µM (inactive); with NCI-H226, > 100 µM (inactive); in the assay on SNB-75 it was > 100 µM (inactive); in the assay on MDA-MB-231 it was > 100 µM (inactive); in the assay on SK-MEL-2, 48.2 µM (inactive). In addition, the GI50 with MOLT-4 is 25.8 µM (inactive); in the assay on COLO 205, 39.1 µM (inactive); in the assay with A498, > 100 µM (inactive); with NCI-H460, > 100 µM (inactive); in the assay on SF-295 it was 55.5 µM (inactive); with LOX IMVI it was > 100 µM (inactive). Moreover, the GI50 in the assay with TK-10 is > 100 µM (inactive); with SF-539, > 100 µM (inactive); in the assay on DU-145, > 100 µM (inactive); in the assay on CAKI-1 it was > 100 µM (inactive); with PC-3, 48.3 µM (inactive); in the assay on EKVX, 33.4 µM (inactive).
Consider `CC1=CCS(=O)(=O)C1C(O)C1=C(C)CCCC1(C)C` (stereo not drawn), for which the GI50 in the assay on T47D is 45.7 µM (inactive); with HCT-116, 72.3 µM (inactive); in the assay on NCI-H226 it was > 100 µM (inactive); with SNB-75, 98.4 µM (inactive); with MDA-MB-231, > 100 µM (inactive); in the assay on SK-MEL-2 it was > 100 µM (inactive). For the same compound, the GI50 in the assay on MOLT-4 was 51.2 µM (inactive); in the assay with COLO 205 it was 60.1 µM (inactive); in the assay on A498, 0.0395 µM (active); in the assay on SF-295 it was 22.2 µM (inactive); with LOX IMVI it was 62.2 µM (inactive); with TK-10, > 100 µM (inactive). Moreover, the GI50 in the assay with SF-539 was > 100 µM (inactive); in the assay with DU-145 it was > 100 µM (inactive); in the assay with CAKI-1, > 100 µM (inactive); with PC-3 it was 55.5 µM (inactive); with EKVX, > 100 µM (inactive).
As to `Nc1ccc2nc(-c3ccccn3)c(-c3ccccn3)nc2c1`, the GI50 in the assay with T47D, with HCT-116, with NCI-H226, with SNB-75, in the assay with MDA-MB-231 and in the assay with SK-MEL-2 was > 100 µM (inactive) each time. In addition, the GI50 in the assay with MOLT-4, in the assay with COLO 205, with A498, in the assay with NCI-H460, in the assay on SF-295 and with LOX IMVI was > 100 µM (inactive) throughout. The GI50 in the assay with TK-10, in the assay on SF-539, in the assay with DU-145, with CAKI-1, with PC-3 and in the assay on EKVX was > 100 µM (inactive) throughout.
For the compound `O=C(O)c1cc(-c2ccncc2)nc2ccccc12`, the GI50 with T47D, with HCT-116, in the assay on NCI-H226, in the assay with MDA-MB-231, with SK-MEL-2 and in the assay on MOLT-4 was > 100 µM (inactive) in each case. Further, the GI50 in the assay on COLO 205, in the assay on A498, with NCI-H460, with SF-295, with LOX IMVI and with TK-10 was > 100 µM (inactive) throughout. Also, the GI50 with SF-539, in the assay on DU-145, with CAKI-1, in the assay on PC-3 and in the assay with EKVX was > 100 µM (inactive) throughout.
